Assay results published in PubChem BioAssay (NCI).
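Exposure lasted 48 hours, with cells grown in 96-well plates and compounds tested at five concentrations. At the GI50, growth is halved. Definition used: TGI = concentration required for complete inhibition of growth.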

Experiments:
Assay in all cases: NCI tumour cell line growth inhibition, 48 h
[1] = tested on: UO-31 renal
[2] = tested on: SF-295 CNS
[3] = tested on: HCT-15 colon
[4] = tested on: MDA-MB-231 breast
[5] = tested on: 786-0 renal
[6] = tested on: COLO 205 colon
[7] = tested on: MDA-MB-435
[8] = tested on: SNB-19 CNS
[9] = tested on: PC-3 prostate
[10] = tested on: RXF 393 renal
[11] = tested on: M14 melanoma
[12] = tested on: NCI-H522 lung
[13] = tested on: SW-620 colon
[14] = tested on: HCT-116 colon
[15] = tested on: SF-539 CNS
[16] = tested on: DU-145 prostate
[17] = tested on: SNB-75 CNS
[18] = tested on: HOP-92 NSCLC
[19] = tested on: SN12C renal
[20] = tested on: EKVX NSCLC
[21] = tested on: OVCAR-8 ovarian
[22] = tested on: NCI-H23 lung
[23] = tested on: HCC-2998 colon
[24] = tested on: SF-268 CNS
[25] = tested on: CCRF-CEM leukemia
[26] = tested on: CAKI-1 renal
[27] = tested on: HS 578T breast
[28] = tested on: KM12 colon
[29] = tested on: MOLT-4 leukemia
[30] = tested on: NCI-H226 lung
[31] = tested on: HL-60(TB) leukemia
[32] = tested on: TK-10 renal
[33] = tested on: A549 NSCLC
[34] = tested on: BT-549 breast
[35] = tested on: SK-MEL-2 melanoma
[36] = tested on: RPMI-8226 leukemia
[37] = tested on: SK-MEL-5 melanoma
[38] = tested on: MCF7 breast
[39] = tested on: IGROV1 ovarian
[40] = tested on: UACC-257 melanoma
[41] = tested on: UACC-62 melanoma
[42] = tested on: SK-MEL-28 melanoma
[43] = tested on: SK-OV-3 ovarian
[44] = tested on: OVCAR-3 ovarian
[45] = tested on: LOX IMVI melanoma
[46] = tested on: MDA-N
[47] = tested on: HOP-62 NSCLC
[48] = tested on: ACHN renal
[49] = tested on: HT29 colon
[50] = tested on: OVCAR-4 ovarian
[51] = tested on: T-47D breast
[52] = tested on: MALME-3M melanoma
[53] = tested on: U251 CNS
[54] = tested on: NCI/ADR-RES ovarian
[55] = tested on: SR leukemia
[56] = tested on: K-562 leukemia
[57] = tested on: NCI-H460 lung
[58] = tested on: OVCAR-5 ovarian
[59] = tested on: A498 renal

SMILES: O=P1(c2ccccc2)c2ccccc2CCc2ccccc21
- TGI [1]: > 100 µM
- TGI [2]: > 100 µM
- TGI [3]: > 100 µM
- TGI [4]: > 100 µM
- TGI [5]: > 100 µM
- TGI [6]: > 100 µM
- TGI [7]: > 100 µM
- TGI [8]: > 100 µM
- TGI [9]: > 100 µM
- TGI [10]: > 100 µM
- TGI [11]: > 100 µM
- TGI [12]: > 100 µM
- TGI [13]: > 100 µM
- TGI [14]: > 100 µM
- TGI [15]: > 100 µM
- TGI [16]: > 100 µM
- TGI [17]: > 100 µM
- TGI [18]: > 100 µM
- TGI [19]: > 100 µM
- TGI [20]: > 100 µM
- TGI [21]: > 100 µM
- TGI [22]: > 100 µM
- TGI [23]: > 100 µM
- TGI [24]: > 100 µM
- TGI [25]: > 100 µM
- TGI [26]: > 100 µM
- TGI [27]: > 100 µM
- TGI [28]: > 100 µM
- TGI [29]: > 100 µM
- TGI [30]: > 100 µM
- TGI [31]: > 100 µM
- TGI [32]: > 100 µM
- TGI [33]: > 100 µM
- TGI [34]: > 100 µM
- TGI [35]: > 100 µM
- TGI [36]: > 100 µM
- TGI [37]: > 100 µM
- TGI [38]: > 100 µM
- TGI [39]: > 100 µM
- TGI [40]: > 100 µM
- TGI [41]: > 100 µM
- TGI [42]: > 100 µM
- TGI [43]: > 100 µM
- TGI [44]: > 100 µM
- TGI [45]: > 100 µM
- TGI [46]: > 100 µM
- TGI [47]: > 100 µM

SMILES: O=C(c1ccco1)c1nc2cc(F)ccc2[n+]([O-])c1C(F)(F)F
- GI50 [1]: 28.1 µM
- TGI [1]: > 100 µM
- GI50 [2]: 51.8 µM
- TGI [2]: > 100 µM
- GI50 [3]: 17.8 µM
- TGI [3]: 39.1 µM
- GI50 [4]: 22.6 µM
- TGI [4]: 60.5 µM
- GI50 [5]: 53.2 µM
- TGI [5]: > 100 µM
- GI50 [6]: 16 µM
- TGI [6]: 32.7 µM
- GI50 [48]: 27.6 µM
- TGI [48]: > 100 µM
- GI50 [7]: 19.2 µM
- TGI [7]: 44 µM
- GI50 [8]: 47.4 µM
- TGI [8]: > 100 µM
- GI50 [49]: 24 µM
- TGI [49]: 79 µM
- GI50 [9]: 35.3 µM
- TGI [9]: > 100 µM
- GI50 [50]: 21.5 µM
- TGI [50]: 50.5 µM
- GI50 [10]: 19.2 µM
- TGI [10]: 52.7 µM
- GI50 [51]: 30.6 µM
- TGI [51]: > 100 µM
- GI50 [11]: 17.6 µM
- TGI [11]: 38.7 µM
- GI50 [12]: 14.7 µM
- TGI [12]: 32.2 µM
- GI50 [52]: 17.4 µM
- TGI [52]: 33.9 µM
- GI50 [13]: > 100 µM
- TGI [13]: > 100 µM
- GI50 [14]: 34 µM
- TGI [14]: > 100 µM
- GI50 [15]: > 100 µM
- TGI [15]: > 100 µM
- GI50 [16]: 38.8 µM
- TGI [16]: > 100 µM
- GI50 [17]: 24.5 µM
- TGI [17]: 86.6 µM
- GI50 [18]: 22.6 µM
- TGI [18]: 58.7 µM
- GI50 [19]: 44.4 µM
- TGI [19]: > 100 µM
- GI50 [20]: 18.6 µM
- TGI [20]: 39.9 µM
- GI50 [21]: 22.5 µM
- TGI [21]: 62 µM
- GI50 [22]: 19.1 µM
- TGI [22]: 42.7 µM
- GI50 [23]: 17 µM
- TGI [23]: 32 µM
- GI50 [24]: 39.2 µM
- TGI [24]: > 100 µM
- GI50 [53]: 35.5 µM
- TGI [53]: > 100 µM
- GI50 [25]: 29.9 µM
- TGI [25]: > 100 µM
- GI50 [26]: 15.8 µM
- TGI [26]: 30.8 µM
- GI50 [27]: 97.4 µM
- TGI [27]: > 100 µM
- GI50 [54]: 21.5 µM
- TGI [54]: 66.5 µM
- GI50 [55]: 17.4 µM
- TGI [55]: 60.9 µM
- GI50 [28]: 57 µM
- TGI [28]: > 100 µM
- GI50 [29]: 24.8 µM
- TGI [29]: 66.3 µM
- GI50 [30]: 99.1 µM
- TGI [30]: > 100 µM
- GI50 [31]: 18.4 µM
- TGI [31]: 49.2 µM
- GI50 [32]: 85.3 µM
- TGI [32]: > 100 µM
- GI50 [33]: 34.6 µM
- TGI [33]: > 100 µM
- GI50 [56]: 9.59 µM
- TGI [56]: 47.9 µM
- GI50 [34]: 22.2 µM
- TGI [34]: 51.6 µM
- GI50 [35]: 20.8 µM
- TGI [35]: 50.3 µM
- GI50 [36]: 35.8 µM
- TGI [36]: > 100 µM
- GI50 [57]: 41.8 µM
- TGI [57]: > 100 µM
- GI50 [37]: > 100 µM
- TGI [37]: > 100 µM
- GI50 [38]: 56.2 µM
- TGI [38]: > 100 µM
- GI50 [58]: 26.7 µM
- TGI [58]: 90.6 µM
- GI50 [39]: 17.9 µM
- TGI [39]: 36.7 µM
- GI50 [40]: 22.5 µM
- TGI [40]: 67.3 µM
- GI50 [41]: 24.8 µM
- TGI [41]: 68.2 µM
- GI50 [42]: 29.4 µM
- TGI [42]: 95.4 µM
- GI50 [43]: 35.3 µM
- TGI [43]: > 100 µM
- GI50 [44]: 20.8 µM
- TGI [44]: 46.7 µM
- GI50 [45]: 19.4 µM
- TGI [45]: 39.2 µM
- GI50 [47]: 81.4 µM
- TGI [47]: > 100 µM
- GI50 [59]: 86.6 µM
- TGI [59]: > 100 µM
